Measurements as given in ChEMBL document CHEMBL5029166, “Development of BET inhibitors as potential treatments for cancer: A new carboline chemotype” (Bioorg Med Chem Lett, 2021).
pIC50: −log10 of the molar value. Values after ≈ are worked out from the molar mass of the structure shown.

Legend:
[1] = Antiproliferative activity against human JJN-3R cells assessed as reduction in cell viability; type: functional, cell-based
[2] = Metabolic stability in human liver microsomes assessed as half life measured upto 120 mins; type: ADME, Microsome
[3] = Metabolic stability in dog liver microsomes assessed as half life measured upto 120 mins; type: ADME, Canis lupus familiaris, Microsome
[4] = Metabolic stability in mouse liver microsomes assessed as half life measured upto 120 mins; type: ADME, Microsome
[5] = Metabolic stability in rat liver microsomes assessed as half life measured upto 120 mins; type: ADME, Microsome
[6] = Metabolic stability in monkey liver microsomes assessed as half life measured upto 120 mins; type: ADME, Microsome; details: macaca
[7] = molecular target: Bromodomain-containing protein 4 (Homo sapiens, UniProt O60885); test: Inhibition of BRD4 (unknown origin)
[8] = Metabolic stability in mouse liver microsomes assessed as compound remaining; type: ADME, Microsome
[9] = Metabolic stability in rat liver microsomes assessed as compound remaining; type: ADME, Microsome
[10] = Metabolic stability in human liver microsomes assessed as compound remaining; type: ADME, Microsome
[11] = Anticancer activity against human TNBC cancer tissue xenografted PDTX po dosed mouse model assessed as growth inhibition treated 5-day on/2-day off regimen for 2 weeks after 27 days of tumor implantation; type: functional; details: Breast carcinoma cell, 336 h, read-out: MED
[12] = Permeability of the compound by PAMPA; type: ADME; details: read-out: permeability
[13] = Anticancer activity against human TNBC cancer tissue xenografted PDTX mouse model assessed as tumor growth inhibition at 4 mg/kg, po treated 5-day on/2-day off regimen for 2 weeks after 27 days of tumor implantation; type: functional; details: Breast carcinoma cell, 336 h, read-out: TGI
[14] = AUC in mouse at 3 mg/kg, po measured after 24 hrs; type: ADME, organism-based; parameters: route oral, dose 3 mg/kg, time 24 hrs; details: in vivo
[15] = Solubility of the compound in pH 6.5 phosphate buffer; type: physicochemical

Row | SMILES | pIC50 [1] | half-life [2] [min] | half-life [3] [min] | half-life [4] [min] | half-life [5] [min] | half-life [6] [min] | pIC50 [7] | Stability [8] [%] | Stability [9] [%] | Stability [10] [%] | minimal effective dose [11] [mg/kg] | Papp [12] [×10⁻⁶ cm/s] | inhibition in vivo at 4 mg/kg [13] [%] | AUC at 24 h [14] [µM·h] | solubility [15] [µg/mL]
1 | [2H]C([2H])([2H])c1nnn(C)c1-c1cc2c(cc1F)c1ncc(C(C)(C)O)cc1n2[C@@H](CCC)c1ncccc1F | 8.62 | 74 | 14 | 53 | 37 | 36 | 9.30 |  |  |  |  |  |  |  | 
2 | Cc1nnn(C)c1-c1cnc2c3ccc(C(C)(C)O)cc3n([C@H](c3ccccc3)C3CCOCC3)c2c1 [EZOBRESIB] | 8.44 | 36 | 20 | 23 | 40 | 11 | 9.10 |  |  |  |  |  |  |  | 
3 | Cc1nnn(C)c1-c1cc2c(cc1F)c1ncc(C(C)(C)O)cc1n2[C@H](c1ccccc1)C1CCOCC1 | 8.21 | 25 | 22 | 21 | 7 | 9 | 8.89 |  |  |  |  |  |  |  | 
4 | Cc1nnn(C)c1-c1ccc2c3ncc(C(C)(C)O)cc3n([C@H](c3ccccc3)C3CCOCC3)c2c1 | 8.74 | 7 | 15 | 11 | 3 | 4 | 9.22 |  |  |  |  |  |  |  | 
5 | Cc1nnn(C)c1-c1ccc2c3ncc(C(C)(C)O)cc3n([C@H](c3ccccc3)C3CCOCC3)c2c1F | 8.35 |  |  |  |  |  | 8.40 | 72 | 3 | 7 |  |  |  |  | 
6 | [2H]C([2H])([2H])c1nnn(C)c1-c1cc2c(cn1)c1ncc(C(C)(C)O)cc1n2[C@H](c1ccccc1)C1CCOCC1 | 7.66 | 120 | 120 | 120 | 46 | 92 |  |  |  |  |  |  |  |  | 
7 | [2H]C([2H])([2H])c1nnn(C)c1-c1cc2c(cc1F)c1ncc(C(C)(C)O)cc1n2[C@H](c1ncccc1F)C1CCOCC1 | 8.28 | 95 | 22 | 32 | 87 | 21 | 9.22 |  |  |  | 4 | 55 | 76 | 11.1 | 
8 | [2H]C([2H])([2H])c1nnn(C)c1-c1cc2c(cc1F)c1ncc(C(C)(C)O)cc1n2[C@H](c1cc(C)on1)C1CCOCC1 | 7.92 | 61 | 53 | 31 | 1 | 12 | 9.22 |  |  |  |  | 30 |  |  | 
9 | Cc1sc2c(c1C)C(c1ccc(Cl)cc1)=N[C@@H](CC(=O)OC(C)(C)C)c1nnc(C)n1-2 |  |  |  |  |  |  |  |  |  |  |  |  |  | 7.4 | 
10 | [2H]C([2H])([2H])c1nnn(C)c1-c1cc2c(cc1Cl)c1ncc(C(C)(C)O)cc1n2[C@H](c1ccccc1)C1CCOCC1 | 6.59 |  |  |  |  |  |  |  |  |  |  |  |  |  | 
11 | Cc1nnn(C)c1-c1cc(F)c2c3ncc(C(C)(C)O)cc3n([C@H](c3ccccc3)C3CCOCC3)c2c1 | 7.29 | 9 | 29 | 26 | 10 | 5 | 9.15 |  |  |  |  |  |  |  | 
12 | [2H]C([2H])([2H])c1nnn(C)c1-c1cc2c(cc1F)c1ncc(C(C)(C)O)cc1n2[C@H](c1ccccc1)C1CCOCC1 | 8.12 | 54 | 46 | 46 | 9 | 14 | 9.40 |  |  |  |  | 84 |  | 10 | 13 (≈ 25.2 µM)
